According to PubChem BioAssay AID1259407 (Chemical Carcinogenesis Research Information System (CCRIS), 2018):
Activity calls are given as the source filed them. The rule behind the calls is not given here.

Test system: CCRIS mutagenicity, Ames/micronucleus/aberration tests
Assay: CCRIS mutagenicity studies
[1] = Test System: AMES SALMONELLA TYPHIMURIUM, Strain/Indicator: TA98, Metabolic Activation: NONE, Method: STANDARD PLATE
[2] = Test System: AMES SALMONELLA TYPHIMURIUM, Strain/Indicator: TA100, Metabolic Activation: NONE, Method: STANDARD PLATE
[3] = Test System: AMES SALMONELLA TYPHIMURIUM, Strain/Indicator: TA1535, Metabolic Activation: NONE, Method: STANDARD PLATE
[4] = Test System: AMES SALMONELLA TYPHIMURIUM, Strain/Indicator: TA1537, Metabolic Activation: NONE, Method: STANDARD PLATE
[5] = Test System: AMES SALMONELLA TYPHIMURIUM, Strain/Indicator: TA1538, Metabolic Activation: NONE, Method: STANDARD PLATE

With O=c1[nH][nH]c2ccccc12 the mutagenic call (Test System: AMES SALMONELLA TYPHIMURIUM, Strain/Indicator: TA98, Metabolic Activation: HAMSTER, LIVER, S-9, AROCLOR 1254, Method: STANDARD PLATE) was “inactive; negative”, the mutagenic call [1] was “inactive; negative” and the mutagenic call (Test System: AMES SALMONELLA TYPHIMURIUM, Strain/Indicator: TA98, Metabolic Activation: RAT, LIVER, S-9, AROCLOR 1254, Method: STANDARD PLATE) was “inactive; negative”. The mutagenic call (Test System: AMES SALMONELLA TYPHIMURIUM, Strain/Indicator: TA100, Metabolic Activation: HAMSTER, LIVER, S-9, AROCLOR 1254, Method: STANDARD PLATE) was “inactive; negative”, the mutagenic call [2] was “inactive; negative” and the mutagenic call (Test System: AMES SALMONELLA TYPHIMURIUM, Strain/Indicator: TA100, Metabolic Activation: RAT, LIVER, S-9, AROCLOR 1254, Method: STANDARD PLATE) was “inactive; negative”. For the same compound, the mutagenic call (Test System: AMES SALMONELLA TYPHIMURIUM, Strain/Indicator: TA1535, Metabolic Activation: HAMSTER, LIVER, S-9, AROCLOR 1254, Method: STANDARD PLATE) was “inactive; negative”, the mutagenic call [3] was “inactive; negative” and the mutagenic call (Test System: AMES SALMONELLA TYPHIMURIUM, Strain/Indicator: TA1535, Metabolic Activation: RAT, LIVER, S-9, AROCLOR 1254, Method: STANDARD PLATE) was “inactive; negative”. The mutagenic call (Test System: AMES SALMONELLA TYPHIMURIUM, Strain/Indicator: TA1537, Metabolic Activation: HAMSTER, LIVER, S-9, AROCLOR 1254, Method: STANDARD PLATE) was “inactive; negative”, the mutagenic call [4] was “inactive; negative” and the mutagenic call (Test System: AMES SALMONELLA TYPHIMURIUM, Strain/Indicator: TA1537, Metabolic Activation: RAT, LIVER, S-9, AROCLOR 1254, Method: STANDARD PLATE) was “inactive; negative”. The mutagenic call (Test System: AMES SALMONELLA TYPHIMURIUM, Strain/Indicator: TA1538, Metabolic Activation: HAMSTER, LIVER, S-9, AROCLOR 1254, Method: STANDARD PLATE) was “inactive; negative”, the mutagenic call [5] was “inactive; negative” and the mutagenic call (Test System: AMES SALMONELLA TYPHIMURIUM, Strain/Indicator: TA1538, Metabolic Activation: RAT, LIVER, S-9, AROCLOR 1254, Method: STANDARD PLATE) was “inactive; negative”. For the same compound, the mutagenic call (Test System: MOUSE LYMPHOMA, Strain/Indicator: L5178Y (TK+/TK-), Metabolic Activation: NONE, Method: SUSPENSION/PLATE) was “active; positive. reevaluation of results: positive” and the mutagenic call (Test System: MOUSE LYMPHOMA, Strain/Indicator: L5178Y (TK+/TK-), Metabolic Activation: RAT, LIVER, S-9, AROCLOR 1254, Method: SUSPENSION/PLATE) was “inactive; negative. reevaluation of results: negative”.

CCCCC(CC)COC(=O)c1ccc(C(=O)OCC(CC)CCCC)cc1 (centres undefined) was tested, and the mutagenic call [1] was “inactive; negative”, the mutagenic call (Test System: AMES SALMONELLA TYPHIMURIUM, Strain/Indicator: TA98, Metabolic Activation: RAT, LIVER, S-9, Method: STANDARD PLATE) was “inactive; negative” and the mutagenic call [2] was “inactive; negative”. For the same compound, the mutagenic call (Test System: AMES SALMONELLA TYPHIMURIUM, Strain/Indicator: TA100, Metabolic Activation: RAT, LIVER, S-9, Method: STANDARD PLATE) was “inactive; negative”, the mutagenic call [3] was “inactive; negative” and the mutagenic call (Test System: AMES SALMONELLA TYPHIMURIUM, Strain/Indicator: TA1535, Metabolic Activation: RAT, LIVER, S-9, Method: STANDARD PLATE) was “inactive; negative”. The mutagenic call [4] was “inactive; negative”, the mutagenic call (Test System: AMES SALMONELLA TYPHIMURIUM, Strain/Indicator: TA1537, Metabolic Activation: RAT, LIVER, S-9, Method: STANDARD PLATE) was “inactive; negative” and the mutagenic call [5] was “inactive; negative”. For the same compound, the mutagenic call (Test System: AMES SALMONELLA TYPHIMURIUM, Strain/Indicator: TA1538, Metabolic Activation: RAT, LIVER, S-9, Method: STANDARD PLATE) was “inactive; negative”, the mutagenic call (Test System: CHINESE HAMSTER OVARY, Strain/Indicator: CHO-K1-BH4 (HGPRT)/6-THIOGUANINE, Metabolic Activation: NONE) was “inactive; negative” and the mutagenic call (Test System: CHINESE HAMSTER OVARY, Strain/Indicator: CHO-K1-BH4 (HGPRT)/6-THIOGUANINE, Metabolic Activation: RAT, LIVER, S-9) was “inactive; negative”.
